US7915292B2, “Antibacterial quinoline derivatives” (Janssen Pharmaceutica NV, priority 2005, dated 2011)
≈ marks a conversion by molar mass, not a printed value.

Key:
M. Smegmatis ATCC607 = assay: In-vitro anti-bacterial activity against strain M. smegmatis ATCC607 (Alamar Blue growth inhibition); assay type: cell-based; settings: 48 hours incubation; for IC50: Mycolicibacterium smegmatis, read-out: M. smegmatis pIC50 (converted)
Procedure: Serial five-fold dilutions (45 μl in 180 μl) were made directly in the microtiter plates from column 2 to 11 using a customised robot system (Zymark Corp., Hopkinton, Mass.). Pipette tips were changed after every 3 dilutions to minimize pipetting errors with high hydrophobic compounds. Untreated control samples with (column 1) and without (column 12) inoculum were included in each microtiter plate. Approximately 250 CFU per well of bacteria inoculum, in a volume of 100 μl in 2.8× Mueller-Hinton broth medium, was added to the rows […]. The same volume of broth medium without inoculum was added to column 12 in row A to H. The cultures were incubated at 37° C. for 48 hours in a humidified 5% CO2 atmosphere (incubator with open air valve and continuous ventilation). At the end of incubation, two days after inoculation, the bacterial growth was quantitated fluorometrically. Therefore Alamar Blue (10×) was added to all wells in a volume of 20 μl and plates were incubated for another 2 hours at […] The fluorescence was read in a computer-controlled fluorometer (Cytofluor, Biosearch) at an excitation wavelength of 530 nm and an emission wavelength of 590 nm (gain 30). The percentage growth inhibition achieved by the compounds was calculated according to standard methods and expressed as pIC50 values.

[1] = test system: Mycobacterium tuberculosis (strain H37RV); assay: In-vitro method for testing compounds against M. tuberculosis (resazurin growth inhibition); assay type: cell-based; settings: 7 days incubation; for IC50: Mycobacterium tuberculosis, 168 h, read-out: M. tuberculosis pIC50 (converted)
STA 29213 = assay: Microtitre plate assay, IC90 determination, STA 29213; assay type: cell-based, S. aureus; settings: 90% inhibitory concentration for bacterial growth, strain STA 29213, 24 hours at 37° C.; for IC90: Staphylococcus aureus, read-out: IC90 (μg/ml) STA 29213
Procedure: (§1) Stocks (0.5 ml/tube) were stored at -70° C. until use. Bacteria titrations were performed in microtiter plates to detect the TCID50, in which the TCID50 represents the dilution that gives rise to bacterial growth in 50% of inoculated cultures. In general, an inoculum level of approximately 100 TCID50 was used for susceptibility testing. […] Serial five-fold dilutions (45 μl in 180 μl) were made directly in the microtiter plates from column 2 to reach column 11. Untreated control samples with (column 1) and without (column 12) inoculum were included in each microtiter plate. Depending on the bacteria type, approximately 10 to 60 CFU per well of bacteria inoculum (100 TCID50), in a volume of 100 μl in 2.8× Mueller-Hinton broth medium, was added to the rows […]. The same volume of broth medium without inoculum was added to column 12 in row A to H. The cultures were incubated at 37° C. for 24 hours under a normal atmosphere (incubator with open air valve and continuous ventilation). At the end of incubation, one day after inoculation, the bacterial growth was quantitated fluorometrically. Therefore resazurin (0.6 mg/ml) was added in a volume of 20 μl to all wells 3 hours after inoculation, and the plates were re-incubated overnight. A change in colour from blue to pink indicated the growth of bacteria. The fluorescence was read in a computer-controlled fluorometer (Cytofluor Biosearch) at an excitation wavelength of 530 nm and an emission wavelength of 590 nm. The % growth inhibition achieved by the compounds was calculated according to standard methods. The IC90 (expressed in μg/ml) was defined as the 90% inhibitory concentration for bacterial growth.

SPY 8668 = assay: Microtitre plate assay, IC90 determination, SPY 8668; assay type: cell-based, S. pyogens; settings: 90% inhibitory concentration for bacterial growth, strain SPY 8668, 24 hours at 37° C.; for IC90: read-out: IC90 (μg/ml) SPY 8668
Procedure: as §1

STA RMETH = assay: Microtitre plate assay, IC90 determination, STA RMETH; assay type: cell-based, S. aureus; settings: Staphylococcus aureus; 90% inhibitory concentration for bacterial growth; strain STA RMETH; 24 hours at 37° C.; read-out: IC90 (μg/ml) STA RMETH
Procedure: as §1

LMO 49594 = assay: Microtitre plate assay, IC90 determination, LMO 49594; assay type: cell-based, Listeria monocytogenes; settings: 90% inhibitory concentration for bacterial growth, strain LMO 49594, 24 hours at 37° C.; for IC90: Listeria monocytogenes, read-out: IC90 (μg/ml) LMO 49594
Procedure: as §1

SMU 33402 = assay: Microtitre plate assay, IC90 determination, SMU 33402; assay type: cell-based, S. mutans; settings: 90% inhibitory concentration for bacterial growth, strain SMU 33402, 24 hours at 37° C.; for IC90: Streptococcus mutans, read-out: IC90 (μg/ml) SMU 33402
Procedure: as §1

SPN 6305 = assay: Microtitre plate assay, IC90 determination, SPN 6305; assay type: cell-based, S. pneumoniae; settings: 90% inhibitory concentration for bacterial growth, strain SPN 6305, 24 hours at 37° C.; for IC90: Streptococcus pneumoniae, read-out: IC90 (μg/ml) SPN 6305
Procedure: as §1

ECO 25922 = assay: Microtitre plate assay, IC90 determination, ECO 25922; assay type: cell-based, E. coli; settings: 90% inhibitory concentration for bacterial growth, strain ECO 25922, 24 hours at 37° C.; for IC90: Escherichia coli, read-out: IC90 (μg/ml) ECO 25922
Procedure: as §1

EFA 29212 = assay: Microtitre plate assay, IC90 determination, EFA 29212; assay type: cell-based, E. faecalis; settings: 90% inhibitory concentration for bacterial growth, strain EFA 29212, 24 hours at 37° C.; for IC90: Enterococcus faecalis, read-out: IC90 (μg/ml) EFA 29212
Procedure: as §1

EFA 14506 = assay: Microtitre plate assay, IC90 determination, EFA 14506; assay type: cell-based, E. faecalis; settings: 90% inhibitory concentration for bacterial growth, strain EFA 14506, 24 hours at 37° C.; for IC90: Enterococcus faecalis, read-out: IC90 (μg/ml) EFA 14506
Procedure: as §1

STA 25923 = assay: Microtitre plate assay, IC90 determination, STA 25923; assay type: cell-based, S. aureus; settings: 90% inhibitory concentration for bacterial growth, strain STA 25923, 24 hours at 37° C.; for IC90: Staphylococcus aureus, read-out: IC90 (μg/ml) STA 25923
Procedure: as §1

BSU 43639 = assay: Microtitre plate assay, IC90 determination, BSU 43639; assay type: cell-based, Bacillus subtilis; settings: 90% inhibitory concentration for bacterial growth, strain BSU 43639, 24 hours at 37° C.
Procedure: as §1

PAE 27853 = assay: Microtitre plate assay, IC90 determination, PAE 27853; assay type: cell-based, Pseudomonas aeruginosa; settings: 90% inhibitory concentration for bacterial growth, strain PAE 27853, 24 hours at 37° C.; for IC90: Pseudomonas aeruginosa, read-out: IC90 (μg/ml) PAE 27853
Procedure: as §1

SMILES | melting point | IC50 (M. Smegmatis ATCC607) | IC50 [1] | IC90 (μg/ml) STA 29213 (STA 29213) | M. smegmatis pIC50 (M. Smegmatis ATCC607) | IC90 (STA 29213) | IC90 (LMO 49594) | IC90 (ECO 25922) | IC90 (EFA 29212) | also measured
CNC(=O)CN(C)C(c1ccccc1)c1cc2cc(Br)ccc2nc1OC (stereo not shown) [Compound 3] | 190 °C | 89.1 µM | > 100 µM | – | – | – | – | – | – | –
CCN(CC)C(=O)CN(C)C(c1ccccc1)c1cc2cc(Br)ccc2nc1OC (stereo not shown) [Compound 11] | – | – | – | 11.8 µg/mL (≈ 25.1 µM) | 5.1 | – | – | – | – | –
COc1nc2ccc(Br)cc2cc1C(c1ccccc1)N(CCN(C)C)c1ccccc1 (stereo not shown) [Compound 18] | 120 °C | 2 µM | – | – | – | – | – | – | – | –
COc1cccc(CN(CCN(C)C)C(c2ccccc2)c2cc3cc(Br)ccc3nc2OC)c1 (stereo not shown) [Compound 20] | – | 1.26 µM | – | – | – | 14 µg/mL (≈ 26.2 µM) | 15.7 µg/mL (≈ 29.4 µM) | 15.7 µg/mL (≈ 29.4 µM) | 15.7 µg/mL (≈ 29.4 µM) | IC90 (SPY 8668): 12.5 µg/mL (≈ 23.4 µM); IC90 (STA RMETH): 14 µg/mL (≈ 26.2 µM); IC90 (SMU 33402): 12.5 µg/mL (≈ 23.4 µM); IC90 (SPN 6305): 15.7 µg/mL (≈ 29.4 µM)
COc1nc2ccc(Br)cc2cc1C(c1ccccc1)N(CCN(C)C)Cc1ccccc1 (stereo not shown) [Compound 21] | – | – | – | 10.1 µg/mL (≈ 20 µM) | 5.8 | – | – | – | – | IC90 (μg/ml) SPY 8668 (SPY 8668): 10.1 µg/mL (≈ 20 µM); IC90 (μg/ml) LMO 49594 (LMO 49594): 12.7 µg/mL (≈ 25.2 µM); IC90 (μg/ml) SMU 33402 (SMU 33402): 10.1 µg/mL (≈ 20 µM); IC90 (μg/ml) SPN 6305 (SPN 6305): 12.7 µg/mL (≈ 25.2 µM); IC90 (μg/ml) EFA 14506 (EFA 14506): 10.1 µg/mL (≈ 20 µM); IC90 (μg/ml) ECO 25922 (ECO 25922): 12.7 µg/mL (≈ 25.2 µM); IC90 (μg/ml) STA 25923 (STA 25923): 11.3 µg/mL (≈ 22.4 µM); IC90 (μg/ml) BSU 43639 (BSU 43639): 10.1 µg/mL (≈ 20 µM); M. tuberculosis pIC50 [1]: 5.1; IC90 (μg/ml) EFA 29212 (EFA 29212): 12.7 µg/mL (≈ 25.2 µM); IC90 (μg/ml) PAE 27853 (PAE 27853): 12.7 µg/mL (≈ 25.2 µM)
COc1nc2ccc(Br)cc2cc1C(c1ccccc1F)N(CCN(C)C)Cc1ccccc1 (stereo not shown) [Compound 22] | – | 1.58 µM | – | – | – | 10.4 µg/mL (≈ 19.9 µM) | 8.3 µg/mL (≈ 15.9 µM) | 52.2 µg/mL (≈ 99.9 µM) | 10.4 µg/mL (≈ 19.9 µM) | IC90 (EFA 14506): 41.5 µg/mL (≈ 79.4 µM); IC90 (STA 25923): 8.3 µg/mL (≈ 15.9 µM); IC90 (BSU 43639; Bacillus subtilis, read-out: IC90 (μg/ml) BSU 43639): 41.5 µg/mL (≈ 79.4 µM); IC90 (PAE 27853): 13.1 µg/mL (≈ 25.1 µM)
CC(C)N(C)C(=O)CN(Cc1ccccc1)C(c1cccnc1)c1cc2ccccc2nc1-c1ccccc1 (stereo not shown) [Compound 34] | – | – | – | 51.5 µg/mL (≈ 100 µM) | 5.8 | – | – | – | – | –
Cc1ccc2nc(-c3ccccc3)c(C(c3ccccc3)N(CC(=O)N(C)C(C)C)Cc3ccccc3)cc2c1 (stereo not shown) [Compound 41] | 126 °C | 0.1 µM | 6.31 µM | – | – | – | – | 13.3 µg/mL (≈ 25.2 µM) | – | –
CN(C)CCN(Cc1ccccc1)C(c1ccccc1)c1cc2cc(Br)ccc2nc1-c1ccccc1 (stereo not shown) [Compound 51] | – | 1 µM | 7.94 µM | – | – | 11 µg/mL (≈ 20 µM) | 13.8 µg/mL (≈ 25.1 µM) | 13.8 µg/mL (≈ 25.1 µM) | 13.8 µg/mL (≈ 25.1 µM) | IC90 (SPY 8668): 2.8 µg/mL (≈ 5.09 µM); IC90 (STA RMETH): 12.3 µg/mL (≈ 22.3 µM); IC90 (SMU 33402): 6.9 µg/mL (≈ 12.5 µM); IC90 (SPN 6305): 2.8 µg/mL (≈ 5.09 µM); IC90 (EFA 14506): 11 µg/mL (≈ 20 µM); IC90 (STA 25923): 12.3 µg/mL (≈ 22.3 µM); IC90 (PAE 27853): 11 µg/mL (≈ 20 µM)
CN(C)C(=O)CN(Cc1ccccc1)C(c1ccccc1)c1cc2cc(Br)ccc2nc1-c1ccccc1 (stereo not shown) [Compound 53] | 110 °C | 0.316 µM | 20 µM | – | – | – | – | 14.2 µg/mL (≈ 25.2 µM) | – | –
